Experimental data as given in ChEMBL document CHEMBL1130235, “4-hydroxy-5,6-dihydropyrones. 2. Potent non-peptide inhibitors of HIV protease” (J Med Chem, 1997).

Legend:
[1] = target: T1, Human immunodeficiency virus type 1 protease (Human immunodeficiency virus 1, UniProt Q72874); experiment: Inhibitory activity against HIV protease
[2] = target: T1, Human immunodeficiency virus type 1 protease; experiment: Inhibitory activity against HIV protease at pH 6.2
[3] = target: T1, Human immunodeficiency virus type 1 protease; experiment: Inhibitory activity against HIV protease at pH 4.7

IC50 [1] | IC50 [2] | IC50 [3] | SMILES
1300 nM |  |  | NC(=O)CCCC1(c2ccccc2)CC(=O)C(SCCc2ccccc2)=C(O)O1 (stereo not drawn)
14 nM |  |  | CC(C)c1ccc(C(C)C)c(SC2=C(O)OC(CCc3ccccc3)(c3ccccc3)CC2=O)c1 (stereo not drawn)
1200 nM |  |  | CC(C)CC1(c2ccccc2)CC(=O)C(SCCc2ccccc2)=C(O)O1 (stereo not drawn)
10 nM |  |  | CCC(C)c1ccccc1SC1=C(O)OC(CCc2ccccc2)(c2ccccc2)CC1=O (stereo not drawn)
440 nM |  |  | CC(C)CC1(c2ccccc2)CC(=O)C(SCc2ccccc2)=C(O)O1 (stereo not drawn)
32 nM |  |  | O=C1CC(CCc2ccccc2)(c2ccccc2)OC(O)=C1Sc1ccccc1C1CCCCC1 (stereo not drawn)
 | 79 nM | 7 nM | Cc1ccc(C(C)C)c(SC2=C(O)OC(CCc3ccccc3)(c3ccccc3)CC2=O)c1 (stereo not drawn)
38 nM |  |  | Cc1ccc(C(C)C)c(SC2=C(O)OC(c3ccccc3)(c3ccccc3)CC2=O)c1
47 nM |  |  | CC(C)c1ccc(C(C)(C)C)c(SC2=C(O)OC(CCc3ccccc3)(c3ccccc3)CC2=O)c1 (stereo not drawn)
400 nM |  |  | CCCCC1(c2ccccc2)CC(=O)C(SCCc2ccccc2)=C(O)O1 (stereo not drawn)
1300 nM |  |  | O=C1CC2(CCCc3ccccc32)OC(O)=C1SCCc1ccccc1 (stereo not drawn)
183 nM |  |  | CC(C)CCCC1(c2ccccc2)CC(=O)C(SCc2ccccc2)=C(O)O1 (stereo not drawn)
2280 nM |  |  | CN(CC1(c2ccccc2)CC(=O)C(SCCc2ccccc2)=C(O)O1)c1ccccc1 (stereo not drawn)
88 nM |  |  | O=C1CC(CC2CCCC2)(c2ccccc2)OC(O)=C1SCc1ccccc1 (stereo not drawn)
96 nM |  |  | CC(C)CCC1(c2ccccc2)CC(=O)C(SCCc2ccccc2)=C(O)O1 (stereo not drawn)
270 nM |  |  | CCCCC1(c2ccccc2)CC(=O)C(SCc2ccccc2)=C(O)O1 (stereo not drawn)
119 nM |  |  | CC(C)c1ccc(C(C)C)c(SC2=C(O)OC(c3ccccc3)(c3ccccc3)CC2=O)c1
 | 104 nM | 3 nM | CC(C)(C)c1ccccc1SC1=C(O)OC(CCc2ccccc2)(c2ccccc2)CC1=O (stereo not drawn)
172 nM |  |  | O=C1CC(COc2ccccc2)(c2ccccc2)OC(O)=C1SCc1ccccc1 (stereo not drawn)
152 nM |  |  | O=C1CC(c2ccccc2)(c2ccccc2)OC(O)=C1SCCc1ccccc1
 | 97 nM | 14 nM | CC(C)c1ccccc1SC1=C(O)OC(CCc2ccccc2)(c2ccccc2)CC1=O (stereo not drawn)

IC50 [1] | IC50 [2] | IC50 [3] | SMILES
98 nM |  |  | CC(C)CCC1(c2ccccc2)CC(=O)C(SCc2ccccc2)=C(O)O1 (stereo not drawn)
23 nM |  |  | CC(C)c1ccccc1SC1=C(O)OC(c2ccccc2)(c2ccccc2)CC1=O
8900 nM |  |  | O=C1CC(c2ccccc2)OC(O)=C1SCc1ccccc1 (stereo not drawn)
5 nM |  |  | O=C(O)CCCCC1(c2ccccc2)CC(=O)C(SCCc2ccccc2)=C(O)O1 (stereo not drawn)
17 nM |  |  | CCC(C)c1ccccc1SC1=C(O)OC(c2ccccc2)(c2ccccc2)CC1=O (stereo not drawn)
180 nM |  |  | CCCCCCC1(c2ccccc2)CC(=O)C(SCc2ccccc2)=C(O)O1 (stereo not drawn)
338 nM |  |  | NC(=O)CCCCC1(c2ccccc2)CC(=O)C(SCCc2ccccc2)=C(O)O1 (stereo not drawn)
5100 nM |  |  | CCCC1(c2ccccc2)CC(=O)C(SCCc2ccccc2)=C(O)O1 (stereo not drawn)
11800 nM |  |  | O=C1CC2(CCc3ccccc32)OC(O)=C1SCc1ccccc1 (stereo not drawn)
262 nM |  |  | O=C1CC(c2ccccc2)(c2ccccc2)OC(O)=C1SCc1ccccc1
 |  | 17 nM | Cc1ccc(C(C)C)c(Sc2c(O)cc(-c3ccccc3)oc2=O)c1
137 nM |  |  | O=C1CC(CC2CCCCC2)(c2ccccc2)OC(O)=C1SCc1ccccc1 (stereo not drawn)
270 nM |  |  | O=C(O)CCCC1(c2ccccc2)CC(=O)C(SCCc2ccccc2)=C(O)O1 (stereo not drawn)
112 nM |  |  | CCCCCCC1(c2ccccc2)CC(=O)C(SCCc2ccccc2)=C(O)O1 (stereo not drawn)
130 nM |  |  | Cc1ccc(C(C)C)c(SC2=C(O)O[C@@](CCc3ccccc3)(c3ccccc3)CC2=O)c1
6 nM |  |  | Cc1ccc(C(C)C)c(SC2=C(O)O[C@](CCc3ccccc3)(c3ccccc3)CC2=O)c1
 |  | 17 nM | CC(C)(C)c1ccccc1Sc1c(O)cc(-c2ccccc2)oc1=O
3100 nM |  |  | O=c1cc(-c2ccccc2)oc(O)c1Sc1ccccc1
12 nM |  |  | Cc1ccc(C(C)(C)C)c(SC2=C(O)OC(c3ccccc3)(c3ccccc3)CC2=O)c1
2100 nM |  |  | O=C1CC(c2ccccc2)OC(O)=C1SCCc1ccccc1 (stereo not drawn)
510 nM |  |  | O=C1CC(CC2CCCC2)(c2ccccc2)OC(O)=C1SCCc1ccccc1 (stereo not drawn)

IC50 [1] | IC50 [2] | IC50 [3] | SMILES
2300 nM |  |  | O=C1CC2(CCCc3ccccc32)OC(O)=C1SCc1ccccc1 (stereo not drawn)
290 nM |  |  | CCCC1(c2ccccc2)CC(=O)C(SCc2ccccc2)=C(O)O1 (stereo not drawn)
388 nM |  |  | Cc1ccccc1SC1=C(O)OC(c2ccccc2)(c2ccccc2)CC1=O
127 nM |  |  | O=C1CC(c2ccccc2)(c2ccccc2)OC(O)=C1Sc1ccccc1C1CCCCC1
130 nM |  |  | O=C1CC(CCc2ccccc2)(c2ccccc2)OC(O)=C1Sc1ccccc1 (stereo not drawn)
73 nM |  |  | Cc1ccccc1SC1=C(O)OC(CCc2ccccc2)(c2ccccc2)CC1=O (stereo not drawn)
1200 nM |  |  | O=C(O)CCC1(c2ccccc2)CC(=O)C(SCCc2ccccc2)=C(O)O1 (stereo not drawn)
1260 nM |  |  | O=C1CC(CCCCO)(c2ccccc2)OC(O)=C1SCc1ccccc1 (stereo not drawn)
 | 282 nM | 28 nM | Cc1ccc(C(C)(C)C)c(Sc2c(O)cc(-c3ccccc3)oc2=O)c1
51 nM |  |  | O=C1CC(CCc2ccccc2)(c2ccccc2)OC(O)=C1SCCc1ccccc1 (stereo not drawn)
84 nM |  |  | CCCCCC1(c2ccccc2)CC(=O)C(SCCc2ccccc2)=C(O)O1 (stereo not drawn)
110 nM |  |  | O=C1CC(c2ccccc2)(c2ccccc2)OC(O)=C1Sc1ccccc1
14 nM |  |  | O=C1CC(c2ccccc2)(c2ccccc2)OC(O)=C1Sc1ccccc1C1CCCC1
49 nM |  |  | CC(C)(C)c1ccccc1SC1=C(O)OC(c2ccccc2)(c2ccccc2)CC1=O
 | 35 nM | 10 nM | Cc1ccc(C(C)(C)C)c(SC2=C(O)OC(CCc3ccccc3)(c3ccccc3)CC2=O)c1 (stereo not drawn)
155 nM |  |  | CC(C)CCCC1(c2ccccc2)CC(=O)C(SCCc2ccccc2)=C(O)O1 (stereo not drawn)
790 nM |  |  | O=C1CC(c2ccccc2)(c2ccncc2)OC(O)=C1SCCc1ccccc1 (stereo not drawn)
60 nM |  |  | O=C1CC(CCc2ccccc2)(c2ccccc2)OC(O)=C1SCc1ccccc1 (stereo not drawn)
1400 nM |  |  | CC(C)CCC1(c2ccccc2)CC(=O)C(Sc2ccccc2)=C(O)O1 (stereo not drawn)
124 nM |  |  | CCCCCC1(c2ccccc2)CC(=O)C(SCc2ccccc2)=C(O)O1 (stereo in doubt; 4b)
327 nM |  |  | CCCCCC1(c2ccccc2)CC(=O)C(SCc2ccccc2)=C(O)O1 (stereo in doubt; 15b)
